Measurements published in US20100273806A1, “TETRAHYDROCYCLOPENTA[B]INDOL-3-YL CARBOXYLIC ACID DERIVATIVES USEFUL IN THE TREATMENT OF AUTOIMMUNE AND INFLAMMATORY DISORDERS” (ARENA PHARMACEUTICALS, INC., priority 2007, published 2010).

What was measured:
S1P3 receptor = S1P3 receptor (Homo sapiens, UniProt Q99500); settings: due to its agonism of the S1P3 receptor; cited from earlier work
[1] = system: patients with multiple sclerosis; settings: Phase II, relapsing-remitting multiple sclerosis; cited from earlier work
[2] = system: experimental autoimmune uveoretinitis; settings: short-term high dose; cited from earlier work
mice = settings: oral administration to mice; cited from earlier work
C57BL/6 mice = settings: prophylactic oral administration, 1 mg/kg, three times a week; cited from earlier work
Female C57BL/6 mice = assay: MOG-induced EAE in mice; assay type: in vivo, mouse; settings: 30 mg/kg orally once a day from day 3 until day 21, compared with vehicle; FIG. 5
Description: (§1) Animals: Female C57BL/6 mice (8 to 10 weeks of age at start of study) (Jackson Laboratory, Bar Harbor, Me.) were housed four per cage and maintained in a humidity- (40-60%) and temperature- (68-72° F.) controlled facility on a 12 h:12 h light/dark cycle (lights on at 6:30 am) with free access to food (Harlan Teklad, Orange, Calif., Rodent Diet 8604) and water. Mice were allowed one week of habituation to the animal facility before testing.
Induction of EAE: Mice were immunized subcutaneously, 50 μL per hind flank, with a total of 100 μg MOG35-55peptide emulsified 1:1 with Complete Freund's adjuvant containing 4 mg/ml heat-killed Mycobacterium tuberculosis. Mice also received 200 ng pertussis toxin intraperitoneally on the day of immunization and 48 h later.
Clinical scoring: Severity of disease symptoms was scored as follows (in increasing order of severity): 0=normal; 1=limp tail OR hind limb weakness; 2=limp tail AND limb weakness/weakness of 2 or more limbs; 3=severe limb weakness or single limb paralysis; 4=paralysis of 2 or more limbs; 5=death.
Drug treatment: Mice were dosed orally, with vehicle or test compound, once a day from day 3 until day 21. Dosing volume is 5 ml/kg. Test compound was dosed at 30 mg/kg. […] Mice were monitored daily from day 7 onward for disease symptoms. After the last dose on day 21, disease progression was monitored daily for 2 more weeks.

female NOD/Ltj mice = assay: Cyclophosphamide induced type I diabetes in NOD mice; assay type: in vivo, mouse; settings: 30 mg/kg orally once a day from day 0 until day 25, compared with vehicle; FIG. 6
Description: Animals: Baseline blood glucose measurements were taken from 9-10 week old female NOD/Ltj mice (Jackson Laboratory, Bar Harbor, Me.) to ensure that they were normoglycemic (blood glucose is 80-120 mg/dL) prior to initiation of the experiment. Blood glucose was measured from tail bleeds using a one touch ultra kit and test strips (LifeScan, Milpitas, Calif.).
Cyclophosphamide induction of Type I diabetes: On day 0 and day 14, normoglycemic NOD mice were injected intraperitoneally with 4 mg cyclophosphamide monohydrate (200 mg/kg) dissolved in 0.9% saline. If mice were diabetic (blood glucose is >250 mg/dL) they were not given a booster dose of cyclophosphamide on day 14.
Drug Treatment: Mice were dosed orally, with vehicle or test compound, once a day from day 0 until day 25. Compounds were suspended in 0.5% methyl cellulose vehicle using a sonicator to ensure uniform suspension. Mice were weighed twice weekly and were dosed according to weight. Dosing volume was 5 mL/kg. Test compound was dosed at 30 mg/kg. Blood glucose was measured twice weekly. After dosing was completed at day 25, the mice continued to be monitored and blood glucose measurements were taken once a week for 3 weeks.

[3] = system: C57BL/6 mice (recipients of Balbc/J skin grafts); assay: Mouse skin allograft survival; assay type: in vivo; settings: 3, 10 and 30 mg/kg orally once a day, compared with vehicle; FIG. 3
Description: as §1, with “BALBc/J” for “C57BL/6”, “(6” for “(8”, “7” for “10”, “water. Female C57BL/6 mice (8 to 10 weeks of age at start of study) (Jackson Laboratory, Bar Harbor, Me.) were similarly housed and maintained.” for “water.”, “testing. […]” for “testing.”
Clinical scoring: Skin allografts were inspected and digital images recorded daily until rejection, which was defined as the first day on which more than 80% of the graft is necrotic. […] In an optional related study, on posttransplantation day 5 isolated lymphocytes from peripheral lymph nodes and spleen were counted and characterized for activation markers (e.g., T-cell activation markers) by flow cytometry. Also on day 5, grafts were removed from transplanted recipients, cut into small fragments, digested with collagenase and sedimented over Ficoll-Paque (Pharmacia Biotech, Uppsala, Sweden) to isolate graft-infiltrating lymphocytes, which were counted and characterized for activation markers (e.g., T-cell activation markers) by flow cytometry. […]

Female Lewis rats = assay: Collagen-induced arthritis in rats (ankle diameter); assay type: in vivo, rat; settings: 3, 10 and 30 mg/kg p.o., q.d., day 0 through day 16, compared with vehicle; FIG. 4
Description: Female Lewis rats were used in this study. Acclimated animals were anesthetized with isoflurane and given the first collagen injection (day 0). On day 6, they were anesthetized again for the second collagen injection. Collagen was prepared by making a 4 mg/mL solution in 0.01 N acetic acid. Equal volumes of collagen and incomplete Freund's adjuvant were emulsified by hand mixing until a bead of this material held its form when placed in water. Each animal received 300 μL of the mixture each time, spread over 3 subcutaneous sites on the back.
Treatment (p.o., q.d., 5 mL/kg dosing volume) began on day 0 and continued through day 16 with vehicle or compounds given at 24 h intervals. Rats were weighed on days 0, 3, 6 and 9 through 17 and caliper measurements of the ankles taken on days 9 through 17. The 2nd enantiomer of Compound 7 (isolated after resolution of compound 7 by HPLC, with a retention time of 24 min per the conditions reported in Example 1.22) was dosed at 3, 10 and 30 mg/kg.

Sequence of S1P3 receptor (Q99500 whole entry): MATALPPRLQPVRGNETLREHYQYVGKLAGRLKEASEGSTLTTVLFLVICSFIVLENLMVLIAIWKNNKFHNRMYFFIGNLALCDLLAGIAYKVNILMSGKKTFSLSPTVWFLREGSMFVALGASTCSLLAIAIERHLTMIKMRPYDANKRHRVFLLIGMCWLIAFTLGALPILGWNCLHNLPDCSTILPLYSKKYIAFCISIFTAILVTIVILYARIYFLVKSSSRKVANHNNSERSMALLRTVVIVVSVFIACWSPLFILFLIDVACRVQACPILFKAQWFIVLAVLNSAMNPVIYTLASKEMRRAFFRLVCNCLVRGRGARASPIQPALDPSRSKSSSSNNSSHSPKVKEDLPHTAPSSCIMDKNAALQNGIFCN

Compound	adverse event in clinical trials (S1P3 receptor)	number of lesions detected by MRI and clinical disease activity [1]	ocular infiltrates [2]	VEGF-induced vascular permeability (mice)	development of EAMG (C57BL/6 mice)	severity of disease symptoms in EAE (Female C57BL/6 mice)	incidence of diabetes / promotion of normoglycemia (female NOD/Ltj mice)	delay of time of rejection of the skin allograft [3]	mean ankle diameter (Female Lewis rats)
CCCCCCCCc1ccc(CCC(N)(CO)CO)cc1 [FTY720]	transient asymptomatic bradycardia	reduce the number of lesions detected by magnetic resonance imaging (MRI) and clinical disease activity	rapidly reduced ocular infiltrates	potently blocked VEGF-induced vascular permeability	completely prevented the development of experimental autoimmune myasthenia gravis (EAMG)				
N#Cc1cc(OC(F)(F)F)cc(-c2nc(-c3ccc4[nH]c5c(c4c3)CCC5CC(=O)O)no2)c1 (stereo not drawn) [2nd enantiomer of Compound 7, 2-(7-(5-(3-cyano-5-(trifluoromethoxy)phenyl)-1,2,4-oxadiazol-3-yl)-1,2,3,4-tetrahydrocyclopenta[b]indol-3-yl)acetic acid]						exhibited activity in the mouse EAE assay	exhibited activity in the NOD mouse type I diabetes assay	exhibited activity in the mouse skin allograft assay	exhibited activity for reducing mean ankle diameter in the rat
